Experimental data as given in patent US11053226B2, “KRAS G12C inhibitors and methods of using the same” (Amgen Inc., priority 2018, dated 2021).
Where two headings read alike, the source gives them in different places.

How the values were obtained:
[1] = tested on: Phosphorylation of ERK1/2 in A549 cells; test: Phospho-ERK1/2 MSD Assay (A549); assay type: cell-based; settings: Homo sapiens, A549, 4 h, read-out: pERK IC50 (4 h, A549), 4 h compound treatment
[2] = molecular target: GDP-bound KRAS protein (aa 1-169), containing both G12C and C118A amino acid substitutions (Homo sapiens (Human), UniProt P01116, C118A/G12C); test: Coupled Nucleotide Exchange Assay; assay type: biochemical
GDP-bound KRAS protein (aa 1-169), containing both G12C and C118A amino acid substitutions, sequence (P01116 other isoform, or with tags, fused parts or gaps G12C/C118A): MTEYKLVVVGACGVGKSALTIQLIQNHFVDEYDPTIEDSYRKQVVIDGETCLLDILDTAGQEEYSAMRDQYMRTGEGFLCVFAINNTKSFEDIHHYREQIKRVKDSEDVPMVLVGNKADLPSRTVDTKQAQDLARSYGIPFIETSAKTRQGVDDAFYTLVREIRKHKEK
Experimental: For compounds in Table 9, the following assay conditions were employed:
Coupled Nucleotide Exchange Assay:
The assay plates were then read on a PerkinElmer EnVision Multilabel Reader, using AlphaScreen® technology, and data were analyzed using a 4-parameter logistic model to calculate IC50 values.

[3] = read-out: Coupled Exchange IC50 (2 h), 2 h compound pre-incubation
[4] = read-out: Coupled Exchange IC50 (20 h), 20 h compound pre-incubation
[5] = second Coupled Exchange column, read-out: Coupled Exchange IC50
[6] = third Coupled Exchange column, compound pre-incubation probably 20 hours (rest of head not shown; b435 lists 5 min, 2 hours or 20 hours), read-out: Coupled Exchange IC50
[7] = first Coupled Exchange column, compound pre-incubation probably 5 min (rest of head not shown; b435 lists 5 min, 2 hours or 20 hours), read-out: Coupled Exchange IC50

| SMILES | IC50 [2, 6] | IC50 [2, 7] | other results |
| --- | --- | --- | --- |
| C=CC(=O)N1CC(NC(=O)Cn2c(C3CC3)c(C(=O)N3CCc4c(cccc4OC)C3)c3cc(Cl)cc(C)c32)C1 [Example 1-7, 2-(5-Chloro-2-cyclopropyl-3-((5-methoxy-3,4-dihydro-2(1H)-isoquinolinyl)carbonyl)-7-methyl-1H-indol-1-yl)-N-(1-(2-propenoyl)-3-azetidinyl)acetamide] | – | – | IC50 [1]: 60.4 µM |
| C=CC(=O)N1CC(NC(=O)Cn2c(C)c(C(=O)N3CCc4c(cccc4OC)C3)c3cc(Cl)cc(C)c32)C1 [Example 3-1, 2-(5-Chloro-3-((5-methoxy-3,4-dihydro-2(1H)-isoquinolinyl)carbonyl)-2,7-dimethyl-1H-indol-1-yl)-N-(1-(2-propenoyl)-3-azetidinyl)acetamide] | – | – | IC50 [1]: > 100 µM |
| C=CC(=O)N1CC(NC(=O)Cn2cc(-c3ccc4ccccc4c3)c3cc(-c4ccc5ccccc5c4)cc(C)c32)C1 [Example 263] | – | – | IC50 [2, 3]: > 250 µM; IC50 [2, 4]: 16.3 µM |
| C=CC(=O)N1CC(NC(=O)Cn2cc(-c3ccc4ccccc4c3)c3cc(Br)cc(C)c32)C1 [Example 264] | – | – | IC50 [2, 3]: 9.6 µM; IC50 [2, 4]: 2.75 µM |
| C=CC(=O)N1CC(NC(=O)Cn2cc(-c3cccc(-c4ccccc4)c3)c3cc(Br)cc(C)c32)C1 [Example 265] | – | – | IC50 [2, 3]: > 250 µM; IC50 [2, 4]: 3.24 µM |
| C=CC(=O)N1CC(NC(=O)Cn2ccc3cc(SC)ccc32)C1 [Example 266] | – | – | IC50 [2, 3]: > 250 µM; IC50 [2, 4]: > 62.5 µM |
| C=CC(=O)N1CC(NC(=O)Cn2ccc3cc(Br)cc(F)c32)C1 [Example 267] | – | – | IC50 [2, 3]: 15.5 µM; IC50 [2, 4]: 2.25 µM |
| C=CC(=O)N1CC(NC(=O)Cn2cc(-c3cccc(C(C)C)c3)c3cc(Br)cc(C)c32)C1 [Example 268] | – | – | IC50 [2, 3]: 6.81 µM; IC50 [2, 4]: 1.62 µM |
| C=CC(=O)N1CC(NC(=O)Cn2ccc3cc(CC)ccc32)C1 [Example 277] | > 250 µM | – | IC50 [2, 5]: > 250 µM |
| C=CC(=O)N1CC(NC(=O)Cn2c(C)c(C(=O)OC(C)(C)C)c3cc([N+](=O)[O-])ccc32)C1 [Example 278] | > 250 µM | – | IC50 [2, 5]: 105 µM |
| C=CC(=O)N1CC(NC(=O)Cn2c3ccccc3c3ccc(Cl)nc32)C1 [Example 280] | > 62.5 µM | – | IC50 [2, 5]: > 250 µM |
| C=CC(=O)N1CC(NC(=O)Cn2c(C)c(-c3nccnc3Cl)c3cc(Cl)ccc32)C1 [Example 281] | 2.32 µM | – | IC50 [2, 5]: 13.6 µM |
| C=CC(=O)N1CC(NC(=O)Cn2c(C#N)c(I)c3cc(Br)ccc32)C1 [Example 304] | 1.24 µM | – | IC50 [2, 5]: 7.24 µM |
| C=CC(=O)N1CC(NC(=O)Cn2c(C)c(-c3cccnc3Br)c3cc(Cl)ccc32)C1 [Example 305] | 0.81 µM | – | IC50 [2, 5]: 2.98 µM |
| C=CC(=O)N1CC(NC(=O)Cn2c(C)c(-c3ncccc3Cl)c3cc(Cl)ccc32)C1 [Example 306] | 1.64 µM | – | IC50 [2, 5]: 9.53 µM |
| C=C(CCO)C(=O)N1CC(NC(=O)Cn2c(C)c(C(=O)N3CCc4c(cccc4OC)C3)c3cc(Br)ccc32)C1 [Example 313] | – | – | IC50 [2, 5]: > 250 µM |
| C=CC(=O)N1CC(NC(=O)Cn2c(C)c(-c3cnccc3C#N)c3cc(Cl)ccc32)C1 [Example 314] | – | – | IC50 [2, 5]: 11.7 µM |
| C=CC(=O)N1CC(NC(=O)Cn2c(C)c(CN3CCN(c4ccc(C#N)cn4)CC3)c3cc(Br)ccc32)C1 [Example 315] | – | – | IC50 [2, 5]: 6.22 µM |
| C=CC(=O)N1CC(NC(=O)Cn2ccc3c(Cl)c(Cl)ccc32)C1 [Example 317] | – | – | IC50 [2, 5]: 15.5 µM |
| C=CC(=O)N1CC(NC(=O)Cn2c(C)c(-c3ccccc3C(C)(C)C)c3cc(Cl)ccc32)C1 [Example 318] | – | 16.2 µM | IC50 [2, 5]: 98.9 µM |
| C=CC(=O)N1CC(NC(=O)Cn2cc(CC(=O)N3CCCC4(CCCN(C)C4)C3)c3cc(Br)ccc32)C1 (centres unmarked) [Example 322] | – | – | IC50 [2, 5]: 2.07 µM |

| SMILES | IC50 [2, 6] | IC50 [2, 7] | other results |
| --- | --- | --- | --- |
| C=CC(=O)N1CC(NC(=O)Cn2c(C3CC3)c(-c3cnccc3C(C)C)c3cc(Cl)cc(C)c32)C1 [Example 324] | – | 2.42 µM | – |
| C=CC(=O)N1CC(NC(=O)Cn2c(C)c(-c3cnccc3C(C)C)c3cc(Cl)cc(C)c32)C1 [Example 325] | – | 1.55 µM | – |
| C=CC(=O)N1CC(NC(=O)Cn2cc(CC(=O)N3CCCCC3CN3CCCCC3)c3cc(Br)ccc32)C1 (centres unmarked) [Example 326] | – | 26.1 µM | – |
| C=CC(=O)N1CC(NC(=O)Cn2cc(CC(=O)N3CCC(c4ncc[nH]4)CC3)c3cc(Br)ccc32)C1 [Example 327] | – | 45.9 µM | – |
| C=CC(=O)N1CC(NC(=O)Cn2cc(CC(=O)N3CCC4(CCOCC4)C3)c3cc(Br)ccc32)C1 [Example 328] | – | 31 µM | – |
| C=CC(=O)N1CC(NC(=O)Cn2cc(CC(=O)N3CCOC4CC(N(C)C)CCC43)c3cc(Br)ccc32)C1 (centres unmarked) [Example 329] | – | 85.8 µM | – |
| C=CC(=O)N1CC(NC(=O)Cn2cc(CC(=O)N3CCc4ccc(C(=O)O)cc4C3)c3cc(Br)ccc32)C1 [Example 330] | – | 36.6 µM | – |
| C=CC(=O)N1CC(NC(=O)Cn2cc(CC(=O)NCC3Cc4ccccc4CN3C)c3cc(Br)ccc32)C1 (centres unmarked) [Example 331] | – | 22.4 µM | – |
| C=CC(=O)N1CC(NC(=O)Cn2cc(CC(=O)N3CCc4cn[nH]c4C3)c3cc(Br)ccc32)C1 [Example 332] | – | 43.3 µM | – |
| C=CC(=O)N1CC(NC(=O)Cn2cc(CC(=O)N3CC4CCC3C4)c3cc(Br)ccc32)C1 (centres unmarked) [Example 333] | – | 80.1 µM | – |
| C=CC(=O)N1CC(NC(=O)Cn2c(C)c(-c3cnccc3C3=CCC(C)CC3)c3cc(Cl)cc(C)c32)C1 (centres unmarked) [Example 334] | – | 0.37 µM | – |
| C=CC(=O)N1CC(NC(=O)Cn2c(C)c(-c3cnccc3C3=CCCCC3)c3cc(Cl)cc(C)c32)C1 [Example 335] | – | 0.8 µM | – |
| C=CC(=O)N1CC(NC(=O)Cn2c(C)c(-c3ccccc3Cc3ccccc3)c3cc(Cl)cc(C)c32)C1 [Example 336] | – | 2.11 µM | – |
| C=CC(=O)N1CC(N(C)C(=O)Cn2c(C)c(-c3cnccc3C3=CCCCC3)c3cc(Cl)cc(C)c32)C1 [Example 337] | – | 2.02 µM | – |
| C=CC(=O)N1CC(NC(=O)Cn2c(C)c(-c3cncnc3C(C)C)c3cc(Cl)cc(C)c32)C1 [Example 338] | – | 2.87 µM | – |
| C=CC(=O)N1CC(N(C)C(=O)Cn2c(C)c(-c3cncnc3C(C)C)c3cc(Cl)cc(C)c32)C1 [Example 339] | – | 2.88 µM | – |
| C=CC(=O)N1CC(NC(=O)Cn2c(C)c(-c3cnccc3C3=CCCCCC3)c3cc(Cl)cc(C)c32)C1 [Example 340] | – | 0.89 µM | – |
| C=CC(=O)N1CC(NC(=O)Cn2c(C)c(-c3cnccc3C3=CCOCC3)c3cc(Cl)cc(C)c32)C1 [Example 341] | – | 2.44 µM | – |
| C=CC(=O)N1CC(NC(=O)Cn2c(C)c(-c3cncnc3C3CCCCC3)c3cc(Cl)cc(C)c32)C1 [Example 342] | – | 0.66 µM | – |
| C=CC(=O)N1CC(NC(=O)Cn2c(C)c(-c3c(OC)cccc3OC)c3cc(Cl)cc(C)c32)C1 [Example 343] | – | 13.6 µM | – |
| C=CC(=O)N1CC(NC(=O)Cn2c(C)c(-c3cccnc3N3CCC(C)CC3)c3cc(Cl)cc(C)c32)C1 [Example 344] | – | 0.88 µM | – |

| SMILES | IC50 [2, 6] | IC50 [2, 7] | other results |
| --- | --- | --- | --- |
| C=CC(=O)N1CC(NC(=O)Cn2c(C)c(-c3cccnc3OCC(C)C)c3cc(Cl)cc(C)c32)C1 [Example 345] | – | 4.43 µM | – |
| C=CC(=O)N1CC(N(C)C(=O)Cn2ccc3cc(Br)ccc32)C1 [Example 346] | 2.73 µM | > 250 µM | – |
| C=CC(=O)N1CC(NC(=O)Cn2c(C)cc3cc(Br)ccc32)C1 [Example 347] | 1.47 µM | > 250 µM | – |
| C=CC(=O)N1CC(N(C)C(=O)Cn2c(C)cc3cc(Br)ccc32)C1 [Example 348] | 1.22 µM | 235 µM | – |
| C=CC(=O)N1CC(NC(=O)Cn2ccc3c(C)c(Br)ccc32)C1 [Example 349] | 3.21 µM | > 250 µM | – |
| C=CC(=O)N1CC(N(C)C(=O)Cn2ccc3c(C)c(Br)ccc32)C1 [Example 350] | 1.53 µM | 237 µM | – |
| C=CC(=O)N1CC(N(C)C(=O)Cn2ccc3cc(Br)cc(C)c32)C1 [Example 351] | 3.32 µM | > 250 µM | – |
| C=CC(=O)N1CC(C)(NC(=O)Cn2ccc3cc(Br)ccc32)C1 [Example 352] | 25 µM | > 250 µM | – |
| C=CC(=O)N1CC(CO)(NC(=O)Cn2ccc3cc(Br)ccc32)C1 [Example 353] | 92.6 µM | 182 µM | – |
| C=CC(=O)N1CC(CO)(N(C)C(=O)Cn2ccc3cc(Br)ccc32)C1 [Example 354] | > 62.5 µM | > 250 µM | – |
| C=CC(=O)N1CC(N(C)C(=O)Cn2cc(C)c3cc(Br)ccc32)C1 [Example 355] | 1.7 µM | 155 µM | – |
| C=CC(=O)N1CC(C)(N(C)C(=O)Cn2ccc3cc(Br)ccc32)C1 [Example 356] | > 31.3 µM | > 250 µM | – |
| C=CC(=O)N1CC(N(C)C(=O)Cn2ccc3cc(Br)c(C)cc32)C1 [Example 357] | 6.78 µM | > 250 µM | – |
| C=CC(=O)N1CC(N(C)C(=O)Cn2ccc3cc(Cl)ccc32)C1 [Example 358] | 3.2 µM | > 250 µM | – |
| C=CC(=O)N1CC(n2nncc2Cn2ccc3cc(Br)ccc32)C1 [Example 359] | 7.66 µM | > 250 µM | – |
| C=CC(=O)N1CC(NC(=O)Cn2ccc3cccc(CC#N)c32)C1 [Example 360] | > 250 µM | > 250 µM | – |
| C=CC(=O)N1CC(NC(=O)Cn2ccc3cc(Br)ccc32)C1C (centres unmarked) [Example 361] | 3.04 µM | 231 µM | – |
| C=CC(=O)N1C[C@@H](NC(=O)Cn2ccc3cc(Br)ccc32)[C@H]1C [Example 362] | > 250 µM | > 250 µM | – |
| C=CC(=O)N1C[C@H](NC(=O)Cn2ccc3cc(Br)ccc32)[C@@H]1C [Example 363] | 2.22 µM | > 250 µM | – |
| C=CC(=O)N1C[C@H](N(C)C(=O)Cn2ccc3cc(Br)ccc32)[C@@H]1C [Example 364] | 8.14 µM | > 250 µM | – |
